From PMC7787666, “BUB-1 targets PP2A:B56 to regulate chromosome congression during meiosis I in C. elegans oocytes” (eLife, 2020) come the findings set out here.

Experiment [1] relates to purified recombinant PPTR-2. Put plainly: Fluorescence polarisation, LxxIxE motif-containing FITC-labelled synthetic peptide with purified recombinant PPTR-2. The class given is binding, C. elegans. The conditions noted are these: FITC-labelled peptide 0.5–1 µM, increasing PPTR-2 (1:2 serial dilution), FP buffer 50 mM NaP pH 7.5, 150 mM NaCl, 0.5 mM TCEP, 30 min, PheraStar FS, technical triplicates, representative experiment; for PPTR-2 interaction (binding) assessed using fluorescence polarisation: Figure 4C. How it is done:
Figure 4. B56α^PPTR-1 and B56γ^PPTR-2 are targeted through a LxxIxE motif in BUB-1. (A) C. elegans BUB-1 LxxIxE SLiM is shown aligned with BubR1 and Repoman short linear motifs (SLiMs). The only change within the LxxIxE sequence itself is the presence of a valine instead of isoleucine, which still fits within the consensus ([Wang et al., 2016]). The alignment was performed using Clustal Omega and visualised with Jalview ([Waterhouse et al., 2009]). (B) Disorder prediction of full-length BUB-1 was done using IUPRED2A ([Erdős and Dosztányi, 2020]). All prevuously characterised BUB-1 domains fall within ordered regions < 0.5. The putative SLiM is in a disordered region (IUPRED score ~0.8). (C) PPTR-2 interaction with a LxxIxE motif-containing synthetic peptide was assessed using fluorescence polarisation. Increasing amounts of purified recombinant PPTR-2 were incubated with FITC-labelled wild-type or L282A,V285A mutant peptide. […] (D) Schematic showing the LxxIxE motif in BUB-1 and the BUB-1^L282A,V285A mutant. […] (F) PPTR-1::GFP levels were measured in wild-type and BUB-1^L282A,V285A oocytes throughout meiosis I and the mean ± s.e.m is shown in the graph. […] (H) Midbivalent/central spindle PPTR-2::GFP levels were measured in wild-type and BUB-1^L282A,V285A oocytes throughout meiosis I, and the mean ± s.e.m is shown in the graph. […] (J) Representative, spindle-wide (20 pixels) line profiles are shown for wild-type (top) and BUB-1^L282A,V285A mutant (bottom) measured in prometaphase I (40 s before metaphase I). […] (K) The angle of bivalents 80 s before segregation in meiosis I relative to the average angle of the spindle was measured in wild-type and in BUB-1^L282A,V285A oocytes. […] N represents number of oocytes and n number of bivalents measured. p value shown in the figure was obtained using a Mann–Whitney test. (L) Distance of bivalents 80 s before segregation in meiosis I relative to the centre of the spindle was measured in wild-type and BUB-1^L282A,V285A oocytes. […]
Background: Fluorescence polarisation rises when a labelled molecule tumbles more slowly, as on binding a larger partner.

For experiment [2], the system named is phospho Ser 283-specific BUB-1 antibody. Put plainly: Peptide competition of anti-phospho Ser 283 BUB-1 antibody in immunofluorescence. The conditions noted are these: antibody dilutions 1:1,000 and 1:10,000 incubated with 1 µM and 10 µM peptide; fixed oocytes. On the procedure:
The antibody was generated by Moravian Biotec by immunising rabbits with the following peptide: RRRHL(pS)PVSEKTC. Serum was adsorbed with a non-phosphorylated peptide (RRRHLSPVSEKTC) followed by affinity purification with the antigenic, phosphorylated peptide. Different fractions were tested in immunofluorescence by incubating different dilutions (1:1,000 and 1:10,000) with 1 µM and 10 µM of either non-phosphorylated or phosphorylated peptide.
Worms were placed on 4 µl of M9 worm buffer in a poly-D-lysine (Sigma, P1024)-coated slide, and a […] coverslip was gently laid on top. Once the worms extruded the embryos, slides were placed on a metal block on dry ice for >10 min. The coverslip was then flicked off with a scalpel blade, and the samples were fixed in methanol at […] for 30 min. After blocking in phosphate-buffered saline (PBS) buffer plus 3% bovine serum albumin and 0.1% Triton X-100 (AbDil), samples were incubated overnight at 4°C with anti-BUB-1 ([Desai et al., 2003]) and anti-tubulin (1/400, clone DM1α, Sigma–Aldrich) in AbDil. After three washes with PBS plus 0.1% Tween, secondary antibodies were added at 1/1000 (goat anti-mouse and goat anti-rabbit conjugated to Alexa Fluor 488, Alexa Fluor 594, Thermo Scientific). […]

Where no end group is shown, it is not given here. [ ]: non-standard residue; d: D form. The star is where a group is joined. FITC = O=C1OC2(c3ccc(O)cc3Oc3cc(O)ccc32)c2ccc(NC(=S)*)cc21; pS = N[C@@H](COP(=O)(O)O)C(=O)O; Ahx = NCCCCCC(=O)O

As to “{FITC-Ahx}-NPRRRHASPASEKTVDDEEE [LAVA, FITC-labelled L282A,V285A mutant BUB-1 peptide]”, in experiment [1], the “PPTR-2 interaction (binding) assessed using fluorescence polarisation” value is “this binding is abolished”.
On to “{FITC-Ahx}-NPRRRHLSPVSEKTVDDEEE [BUB-1, FITC-labelled wild-type BUB-1 LxxIxE motif-containing synthetic peptide]”, for which the “PPTR-2 interaction (binding) assessed using fluorescence polarisation” value in experiment [1] is listed as “binds to purified recombinant PPTR-2”.
For RRRHLSPVSEKTC, in experiment [2], the “competition of antibody signal in immunofluorescence” value is “Only the phosphorylated peptide compited out the signal”.
As to RRRHL[pS]PVSEKTC, the “competition of antibody signal in immunofluorescence” value in experiment [2] is on record as “Only the phosphorylated peptide compited out the signal”.
Regarding “FITC-Ahx-NPRRRHLphSPVSEKTVDDEEE [pBUB-1, FITC-labelled BUB-1 LxxIxE peptide phosphorylated at serine 283]”, the “relative affinity for recombinant B56γ^PPTR-2, phosphorylated versus non-phosphorylated peptide” value in experiment [1] (Figure 5F) was “higher affinity than non-phosphorylated LxxIxE peptide”.
